Laboratory results from patent US7576108B2, “Substituted arylcyclopropylacetamides as glucokinase activators” (Eli Lilly and Company, priority 2003, dated 2009).

Biological target: T1, purified recombinant human islet GK (Homo sapiens, UniProt P35557)
T1 construct: (His)6; made in house; host or cells: E. coli
T1 sequence (P35557 1-465): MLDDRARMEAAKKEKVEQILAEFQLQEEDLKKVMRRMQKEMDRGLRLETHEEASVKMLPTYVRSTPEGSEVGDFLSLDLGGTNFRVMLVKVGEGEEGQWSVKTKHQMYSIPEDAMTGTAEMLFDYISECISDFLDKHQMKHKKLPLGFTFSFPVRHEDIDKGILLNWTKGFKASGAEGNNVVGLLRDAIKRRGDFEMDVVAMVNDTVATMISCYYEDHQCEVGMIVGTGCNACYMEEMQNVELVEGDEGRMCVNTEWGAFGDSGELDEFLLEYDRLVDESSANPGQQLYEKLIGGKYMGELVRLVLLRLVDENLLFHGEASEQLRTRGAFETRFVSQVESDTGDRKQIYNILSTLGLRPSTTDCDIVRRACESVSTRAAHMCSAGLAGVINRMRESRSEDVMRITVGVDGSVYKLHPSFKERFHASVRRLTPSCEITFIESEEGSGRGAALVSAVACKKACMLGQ
Experiment: Enzymatic coupled glucokinase (GK) assay (NADH production, absorbance at 340 nm)
Format: biochemical
Details: concentration of activator that produced 50% of maximum increase in the activity of GK; at 10 mM glucose
Description: An enzymatic coupled glucokinase (GK) assay using purified recombinant human islet GK was used to evaluate effects of the activators. In this assay, GK catalyzes glucose phosphorylation in the presence of ATP. The product of this reaction, glucose-6-phosphate, is then oxidized by an excess of glucose-6-dehydrogenase to produce gluconate-6-phosphate with concomitant reduction of NAD^+ to NADH (Davidson and Arion, 1987). The following outlines the two reactions involved: • Glucose+ATP→Glucose-6-P+ADP (Glucokinase) • Glucose-6-P+NAD→Gluconate-6-P+NADH (glucose-6-P dehydrogenase)
The NADH production detected by absorbance at 340 nm is used to monitor the enzymatic activity.
The human islet GK isoform was expressed in E. coli as (His)6-tagged fusion protein and purified with metal chelate affinity chromatography (Tiedge et al., 1997). After purification the enzyme was stored in aliquots at concentration 0.8 mg/ml in 25 mM NaH2PO4, 150 mM NaCl, 100 mM imidazole, 1 mM DTT, 50% glycerol at −80° C.
The assay was performed in flat bottom 96-well plates in a final incubation volume of 100 μl. The incubation mixture consisted of 25 mM HEPES (pH7.4), 50 mM KCl, 2.5 mM MgCl2, 2 mM dithiothreitol, 4 U/ml glucose-6-phosphate dehydrogenase from Leuconostoc mesenteroides, 5 mM ATP, 1 mM NAD and 10 mM glucose. All reagents were from Sigma-Aldrich Co. (St. Louis, Mo.). Test compounds were dissolved in DMSO and then added to the reaction mixture giving the final DMSO concentration of 10%.
The reaction was initiated by addition of 20 μl GK and run for 20 min at 37° C. The amount of formed NADH was measured as an increase in absorbance at 340 nm using a microplate reader.
The concentration of activator that produced 50% of maximum increase in the activity of GK (EC50) was calculated.

| EC50 [µM] | SMILES |
| --- | --- |
| 7.61 | CNC(=O)c1ccc([C@@]2(C(=O)Nc3nccs3)C[C@H]2C2CCCCC2)cc1 (racemic) [Example 50, (±)-(E)4-[2-Cyclohexyl-1-(thiazol-2-ylcarbamoyl)-cyclopropyl]-N-methyl-benzamide] |
| 0.36 | O=C(Nc1nccs1)[C@]1(c2ccc(S(=O)(=O)NCCc3ccccn3)cc2)C[C@H]1C1CCCC1 (single isomer, unassigned) [Example 26, (E)-2-Cyclopentyl-1-[4-(2-pyridin-2-yl-ethylsulfamoyl)-phenyl]-cyclopropanecarboxylic acid thiazol-2-ylamide] |
| 8.69 | COc1ccc([C@@]2(C(=O)Nc3nccs3)C[C@H]2C2CCCCC2)cc1 (racemic) [Example 48, (±)-(E)-[2-Cyclohexyl-1-(4-methoxy-phenyl)-cyclopropanecarboxylic acid thiazol-2-ylamide]] |
| 1.18 | CS(=O)(=O)c1ccc([C@@]2(C(=O)Nc3nccs3)C[C@H]2CC2CCCCC2)cc1 (racemic) [Example 2, (±)-(E)-2-Cyclohexylmethyl-1-(4-methanesulfonyl-phenyl)-cyclopropanecarboxylic acid thiazol-2-ylamide] |
| 3.82 | CS(=O)(=O)Nc1ccc([C@@]2(C(=O)Nc3nccs3)C[C@H]2C2CCCCC2)cc1 (racemic) [Example 52, (±)-(E)-2-Cyclohexyl-1-(4-methanesulfonylamino-phenyl)-cyclopropanecarboxylic acid thiazol-2-ylamide] |
| 0.7 | CCN(CC)CCCS(=O)(=O)c1ccc([C@@]2(C(=O)Nc3nccs3)C[C@H]2C2CCCCC2)cc1 (racemic) [Example 7, (±)-(E)-2-Cyclohexyl-1-[4-(3-diethylamino-propane-1-sulfonyl)-phenyl]-cyclopropanecarboxylic acid thiazol-2-ylamide] |
| 0.39 | Cc1cnc(NC(=O)[C@]2(c3ccc(S(C)(=O)=O)cc3)C[C@H]2C2CCCCC2)s1 (racemic) [Example 77, (±)-(E)-2-Cyclohexyl-1-(4-methanesulfonyl-phenyl)-cyclopropanecarboxylic acid (5-methyl-thiazol-2-yl)-amide] |
| 3.66 | COC(=O)c1ccc([C@@]2(C(=O)Nc3nccs3)C[C@H]2C2CCCC2)cc1 (racemic) [Example 73, (±)-(E)-4-[2-Cyclopentyl-1-(thiazol-2-ylcarbamoyl)-cyclopropyl]-benzoic acid methyl ester] |
| 9.32 | Cc1nnc(NC(=O)[C@]2(c3ccc(S(C)(=O)=O)cc3)C[C@H]2C2CCCC2)s1 (racemic) [Example 11, (±)-(E)-2-Cyclopentyl-1-(4-methanesulfonyl-phenyl)-cyclopropanecarboxylic acid (5-methyl-[1,3,4]thiadiazol-2-yl)-amide] |
| 1.9 | CS(=O)(=O)c1csc([C@@]2(C(=O)Nc3nccs3)C[C@H]2C2CCCC2)c1 (racemic) [Example 20, (±)-(Z)-2-Cyclopentyl-1-(4-methanesulfonyl-thiophen-2-yl)-cyclopropanecarboxylic acid thiazol-2-ylamide] |
| 10.5 | CC(=O)Nc1ccc([C@@]2(C(=O)Nc3nccs3)C[C@H]2C2CCCCC2)cc1 (racemic) [Example 51, (±)-(E)-1-(4-Acetylamino-phenyl)-2-cyclohexyl-cyclopropanecarboxylic acid thiazol-2-ylamide] |
| 12.7 | Cc1cc(NC(=O)[C@]2(c3ccc(S(C)(=O)=O)cc3)C[C@H]2C2CCCC2)no1 (racemic) [Example 13, (±)-(E)-2-Cyclopentyl-1-(4-methanesulfonyl-phenyl)-cyclopropanecarboxylic acid (5-methyl-isoxazol-3-yl)-amide] |
| 0.16 | CS(=O)(=O)c1ccc([C@@]2(C(=O)Nc3nccs3)C[C@H]2C2CCCCC2)cc1C(F)(F)F (racemic) [Example 45, (±)-(E)-2-Cyclohexyl-1-(4-methanesulfonyl-3-trifluoromethyl-phenyl)-cyclopropanecarboxylic acid thiazol-2-ylamide] |
| 5.3 | CS(=O)(=O)c1ccc(C2(C(=O)Nc3nccs3)C(C3CCCCC3)C2(F)F)cc1 (single isomer, unassigned) [63 (Isomer 2), (±)-(E)-3-Cyclohexyl-2,2-difluoro-1-(4-methanesulfonyl-phenyl)-cyclopropanecarboxylic acid thiazol-2-ylamide] |
| 5.46 | CC(C)C[C@@H]1C[C@]1(C(=O)Nc1nccs1)c1ccc(S(C)(=O)=O)cc1 (racemic) [Example 3, (±)-(E)-2-Isobutyl-1-(4-methanesulfonyl-phenyl)-cyclopropanecarboxylic acid thiazol-2-ylamide] |
| 0.15 | CS(=O)(=O)c1ccc([C@@]2(C(=O)Nc3nccs3)C[C@H]2C2CCCCC2)cc1 (single isomer, unassigned) [55 (Isomer 1)] |
| 7.61 | CS(=O)(=O)c1cccc([C@@]2(C(=O)Nc3nccs3)C[C@H]2C2CCCCC2)c1 (racemic) [Example 35, (±)-(E)-2-Cyclohexyl-1-(3-methanesulfonyl-phenyl)-cyclopropanecarboxylic acid thiazol-2-ylamide] |
